{
  "source": "paper doi:10.1101/2025.05.01.651722v1",
  "about": "(bioRxiv, 2025)",
  "origin": "cited, not measured here",
  "details": "solubility maintained by hydrophilic arginine tail",
  "note": "No end group written: not given here.",
  "data": [
    {"substance": "H-RLTRKRGLKLAGGGGGRRRRRRRRR [ApoB^11]", "values": [
      {"measurement": "hydrophobicity of the peptide", "value": "highly hydrophobic"}
    ]}
  ]
}
